Legend:
Assay type in all cases: functional
M14 = experiment: Growth inhibition of human M14 cells at 10 uM after 48 hrs by sulforhodamine B assay relative to control; conditions: M14, 48 h, read-out: GI
SF-268 = experiment: Growth inhibition of human SF268 cells at 10 uM after 48 hrs by sulforhodamine B assay relative to control; conditions: SF-268, 48 h, read-out: GI
KM12 = experiment: Growth inhibition of human KM12 cells at 10 uM after 48 hrs by sulforhodamine B assay relative to control; conditions: KM12, 48 h, read-out: GI
NCI-H226 = experiment: Growth inhibition of human NCI-H226 cells at 10 uM after 48 hrs by sulforhodamine B assay relative to control; conditions: NCI-H226, 48 h, read-out: GI
CAKI-1 = experiment: Growth inhibition of human CAKI-1 cells at 10 uM after 48 hrs by sulforhodamine B assay relative to control; conditions: CAKI-1, 48 h, read-out: GI
SNB-75 = experiment: Growth inhibition of human SNB75 cells at 10 uM after 48 hrs by sulforhodamine B assay relative to control; conditions: SNB-75, 48 h, read-out: GI
EKVX = experiment: Growth inhibition of human EKVX cells at 10 uM after 48 hrs by sulforhodamine B assay relative to control; conditions: read-out: GI
NCI/ADR-RES = experiment: Growth inhibition of human NCI-ADR-RES cells at 10 uM after 48 hrs by sulforhodamine B assay relative to control; conditions: read-out: GI
SW-620 = experiment: Growth inhibition of human SW620 cells at 10 uM after 48 hrs by sulforhodamine B assay relative to control; conditions: SW-620, 48 h, read-out: GI
Hs-578T = experiment: Growth inhibition of human Hs 578T cells at 10 uM after 48 hrs by sulforhodamine B assay relative to control; conditions: read-out: GI
CCRF-CEM = experiment: Growth inhibition of human CCRF-CEM cells at 10 uM after 48 hrs by sulforhodamine B assay relative to control; conditions: read-out: GI
PC-3 = experiment: Growth inhibition of human PC3 cells at 10 uM after 48 hrs by sulforhodamine B assay relative to control; conditions: PC-3, 48 h, read-out: GI
NCI-H322M = experiment: Growth inhibition of human NCI-H322M cells at 10 uM after 48 hrs by sulforhodamine B assay relative to control; conditions: read-out: GI
RXF 393 = experiment: Growth inhibition of human RXF393 cells at 10 uM after 48 hrs by sulforhodamine B assay relative to control; conditions: RXF 393, 48 h, read-out: GI
SNB-19 = experiment: Growth inhibition of human SNB19 cells at 10 uM after 48 hrs by sulforhodamine B assay relative to control; conditions: SNB-19, 48 h, read-out: GI
SN12C = experiment: Growth inhibition of human SN12C cells at 10 uM after 48 hrs by sulforhodamine B assay relative to control; conditions: read-out: GI
Malme-3M = experiment: Growth inhibition of human MALME-3M cells at 10 uM after 48 hrs by sulforhodamine B assay relative to control; conditions: read-out: GI
SR = experiment: Growth inhibition of human SR cells at 10 uM after 48 hrs by sulforhodamine B assay relative to control; conditions: read-out: GI
HCT-116 = experiment: Growth inhibition of human HCT116 cells at 10 uM after 48 hrs by sulforhodamine B assay relative to control; conditions: HCT-116, 48 h, read-out: GI
SK-OV-3 = experiment: Growth inhibition of human SKOV3 cells at 10 uM after 48 hrs by sulforhodamine B assay relative to control; conditions: SK-OV-3, 48 h, read-out: GI
K562 = experiment: Growth inhibition of human K562 cells at 10 uM after 48 hrs by sulforhodamine B assay relative to control; conditions: K562, 48 h, read-out: GI
A549 = experiment: Growth inhibition of human A549/ATCC cells at 10 uM after 48 hrs by sulforhodamine B assay relative to control; conditions: A549, 48 h, read-out: GI
OVCAR-4 = experiment: Growth inhibition of human OVCAR4 cells at 10 uM after 48 hrs by sulforhodamine B assay relative to control; conditions: OVCAR-4, 48 h, read-out: GI
HT-29 = experiment: Growth inhibition of human HT-29 cells at 10 uM after 48 hrs by sulforhodamine B assay relative to control; conditions: HT-29, 48 h, read-out: GI
OVCAR-5 = experiment: Growth inhibition of human OVCAR5 cells at 10 uM after 48 hrs by sulforhodamine B assay relative to control; conditions: OVCAR-5, 48 h, read-out: GI
NCI-H522 = experiment: Growth inhibition of human NCI-H522 cells at 10 uM after 48 hrs by sulforhodamine B assay relative to control; conditions: NCI-H522, 48 h, read-out: GI
RPMI-8226 = experiment: Growth inhibition of human RPMI8226 cells at 10 uM after 48 hrs by sulforhodamine B assay relative to control; conditions: RPMI-8226, 48 h, read-out: GI
MDA-MB-435 = experiment: Growth inhibition of human MDA-MB-435 cells at 10 uM after 48 hrs by sulforhodamine B assay relative to control; conditions: MDA-MB-435, 48 h, read-out: GI
MCF7 = experiment: Growth inhibition of human MCF7 cells at 10 uM after 48 hrs by sulforhodamine B assay relative to control; conditions: MCF7, 48 h, read-out: GI
DU-145 = experiment: Growth inhibition of human DU145 cells at 10 uM after 48 hrs by sulforhodamine B assay relative to control; conditions: DU-145, 48 h, read-out: GI
OVCAR-8 = experiment: Growth inhibition of human OVCAR8 cells at 10 uM after 48 hrs by sulforhodamine B assay relative to control; conditions: OVCAR-8, 48 h, read-out: GI
A498 = experiment: Growth inhibition of human A498 cells at 10 uM after 48 hrs by sulforhodamine B assay relative to control; conditions: A498, 48 h, read-out: GI
T47D = experiment: Growth inhibition of human T47D cells at 10 uM after 48 hrs by sulforhodamine B assay relative to control; conditions: read-out: GI
SF-295 = experiment: Growth inhibition of human SF295 cells at 10 uM after 48 hrs by sulforhodamine B assay relative to control; conditions: SF-295, 48 h, read-out: GI
UO-31 = experiment: Growth inhibition of human UO31 cells at 10 uM after 48 hrs by sulforhodamine B assay relative to control; conditions: UO-31, 48 h, read-out: GI
COLO 205 = experiment: Growth inhibition of human COLO205 cells at 10 uM after 48 hrs by sulforhodamine B assay relative to control; conditions: COLO 205, 48 h, read-out: GI
TK-10 = experiment: Growth inhibition of human TK10 cells at 10 uM after 48 hrs by sulforhodamine B assay relative to control; conditions: TK-10, 48 h, read-out: GI
MDA-MB-468 = experiment: Growth inhibition of human MDA-MB-468 cells at 10 uM after 48 hrs by sulforhodamine B assay relative to control; conditions: MDA-MB-468, 48 h, read-out: GI

Compound | inhibition of growth at 10 µM (M14) [%] | inhibition of growth at 10 µM (SF-268) [%] | inhibition of growth at 10 µM (KM12) [%] | inhibition of growth at 10 µM (NCI-H226) [%] | inhibition of growth at 10 µM (CAKI-1) [%] | inhibition of growth at 10 µM (SNB-75) [%] | inhibition of growth at 10 µM (EKVX) [%] | inhibition of growth at 10 µM (NCI/ADR-RES) [%] | inhibition of growth at 10 µM (SW-620) [%] | inhibition of growth at 10 µM (Hs-578T) [%] | inhibition of growth at 10 µM (CCRF-CEM) [%] | inhibition of growth at 10 µM (PC-3) [%] | inhibition of growth at 10 µM (NCI-H322M) [%] | inhibition of growth at 10 µM (RXF 393) [%] | inhibition of growth at 10 µM (SNB-19) [%] | inhibition of growth at 10 µM (SN12C) [%] | inhibition of growth at 10 µM (Malme-3M) [%] | inhibition of growth at 10 µM (SR) [%] | inhibition of growth at 10 µM (HCT-116) [%] | inhibition of growth at 10 µM (SK-OV-3) [%] | further results
COc1ccc2c(c1)O/C(=C\c1ccc(OCC(=O)Nc3ccccc3)c(OC)c1)C2=O | 18.9 to 27.1 | 18.9 to 27.1 | 18.9 to 27.1 | 18.9 to 27.1 | 18.9 to 27.1 | 18.9 to 27.1 | 18.9 to 27.1 | 18.9 to 27.1 | 18.9 to 27.1 | 18.9 to 27.1 | 18.9 to 27.1 | 18.9 to 27.1 | 18.9 to 27.1 | 18.9 to 27.1 | 18.9 to 27.1 | 18.9 to 27.1 | 18.9 to 27.1 | 18.9 to 27.1 | 18.9 to 27.1 | 18.9 to 27.1 | inhibition of growth at 10 µM (K562): 18.9 to 27.1%; inhibition of growth at 10 µM (A549): 18.9 to 27.1%; inhibition of growth at 10 µM (OVCAR-4): 18.9 to 27.1%; inhibition of growth at 10 µM (HT-29): 18.9 to 27.1%; inhibition of growth at 10 µM (OVCAR-5): 18.9 to 27.1%; inhibition of growth at 10 µM (NCI-H522): 18.9 to 27.1%; inhibition of growth at 10 µM (RPMI-8226): 18.9 to 27.1%; inhibition of growth at 10 µM (MDA-MB-435): 18.9 to 27.1%; inhibition of growth at 10 µM (MCF7): 18.9 to 27.1%; inhibition of growth at 10 µM (DU-145): 18.9 to 27.1%; inhibition of growth at 10 µM (OVCAR-8): 18.9 to 27.1%; inhibition of growth at 10 µM (A498): 18.9 to 27.1%; inhibition of growth at 10 µM (T47D): 18.9 to 27.1%; inhibition of growth at 10 µM (SF-295): 18.9 to 27.1%; inhibition of growth at 10 µM (UO-31): 18.9 to 27.1%; inhibition of growth at 10 µM (COLO 205): 18.9 to 27.1%; inhibition of growth at 10 µM (TK-10): 18.9 to 27.1%; inhibition of growth at 10 µM (MDA-MB-468): 18.9 to 27.1%
COc1cc(/C=C2\Oc3cc4occc4c(OC)c3C2=O)ccc1OCC(=O)Nc1ccccc1 | 67.1 to 79.6 | 67.1 to 79.6 | 67.1 to 79.6 | 67.1 to 79.6 | 67.1 to 79.6 | 67.1 to 79.6 | 67.1 to 79.6 | 67.1 to 79.6 | 67.1 to 79.6 | 67.1 to 79.6 | 67.1 to 79.6 | 67.1 to 79.6 | 67.1 to 79.6 | 67.1 to 79.6 | 67.1 to 79.6 | 67.1 to 79.6 | 67.1 to 79.6 | 67.1 to 79.6 | 67.1 to 79.6 | 67.1 to 79.6 | inhibition of growth at 10 µM (K562): 67.1 to 79.6%; inhibition of growth at 10 µM (A549): 67.1 to 79.6%; inhibition of growth at 10 µM (OVCAR-4): 67.1 to 79.6%; inhibition of growth at 10 µM (HT-29): 67.1 to 79.6%; inhibition of growth at 10 µM (OVCAR-5): 67.1 to 79.6%; inhibition of growth at 10 µM (NCI-H522): 67.1 to 79.6%; inhibition of growth at 10 µM (RPMI-8226): 67.1 to 79.6%; inhibition of growth at 10 µM (MDA-MB-435): 67.1 to 79.6%; inhibition of growth at 10 µM (MCF7): 67.1 to 79.6%; inhibition of growth at 10 µM (DU-145): 67.1 to 79.6%; inhibition of growth at 10 µM (OVCAR-8): 67.1 to 79.6%; inhibition of growth at 10 µM (A498): 67.1 to 79.6%; inhibition of growth at 10 µM (T47D): 67.1 to 79.6%; inhibition of growth at 10 µM (SF-295): 67.1 to 79.6%; inhibition of growth at 10 µM (UO-31): 67.1 to 79.6%; inhibition of growth at 10 µM (COLO 205): 67.1 to 79.6%; inhibition of growth at 10 µM (TK-10): 67.1 to 79.6%; inhibition of growth at 10 µM (MDA-MB-468): 67.1 to 79.6%
